Experimental data published in patent US9428456B2, “1-[m-carboxamido(hetero)aryl-methyl]-heterocyclyl-carboxamide derivatives” (Actelion Pharmaceuticals Ltd., priority 2012, dated 2016).

What follows are compounds tested against CXCR7 (Homo sapiens (Human), UniProt P25106) (assay: PathHunter CHO-K1 CXCR7 b-arrestin assay (agonistic activity)). Conditions: PathHunter CHO-K1 CXCR7 b-arrestin cell line.
Assay type: cell-based
Method in brief: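 CHO-K1 cells co-expressing ProLink-tagged CXCR7 and EA-fused β-arrestin 2 (enzyme fragment complementation); compounds added in HBSS/20 mM HEPES/0.2% BSA after 3–4 h in OPTIMEM, 90 min at 37 °C. Chemiluminescent β-gal signal read after 1 h detection at room temperature; EC50 reported as geometric mean of several measurements.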

Sequence of CXCR7 (P25106 whole entry): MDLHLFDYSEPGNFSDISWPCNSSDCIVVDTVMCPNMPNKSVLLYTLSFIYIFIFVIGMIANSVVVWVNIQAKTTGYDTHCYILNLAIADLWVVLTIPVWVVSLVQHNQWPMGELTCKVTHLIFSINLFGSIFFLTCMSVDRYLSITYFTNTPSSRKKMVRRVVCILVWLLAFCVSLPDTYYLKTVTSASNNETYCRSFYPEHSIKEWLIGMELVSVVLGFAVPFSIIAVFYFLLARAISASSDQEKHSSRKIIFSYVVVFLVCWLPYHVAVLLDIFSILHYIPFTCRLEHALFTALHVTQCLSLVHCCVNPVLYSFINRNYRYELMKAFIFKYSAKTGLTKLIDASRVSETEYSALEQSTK
Sequence of CXCR7 (P32121 whole entry partner): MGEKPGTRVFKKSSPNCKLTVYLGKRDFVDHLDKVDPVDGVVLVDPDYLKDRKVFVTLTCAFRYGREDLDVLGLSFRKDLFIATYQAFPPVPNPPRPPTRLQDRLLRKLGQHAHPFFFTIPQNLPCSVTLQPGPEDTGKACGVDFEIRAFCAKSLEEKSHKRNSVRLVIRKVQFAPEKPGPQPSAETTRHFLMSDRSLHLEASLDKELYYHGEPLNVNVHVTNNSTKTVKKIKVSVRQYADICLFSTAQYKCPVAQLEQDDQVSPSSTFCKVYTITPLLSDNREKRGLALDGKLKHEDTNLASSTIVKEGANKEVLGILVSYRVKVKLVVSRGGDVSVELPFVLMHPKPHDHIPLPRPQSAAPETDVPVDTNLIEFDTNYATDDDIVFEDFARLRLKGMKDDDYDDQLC

**Q.** Which EC50 does the source give for `CCc1ccc(NC(=O)c2ccc(F)cc2)cc1CN1CCC(C(=O)NC(C)(C)C)CC1` [Example 1.334] here?
**A.** Its EC50 is 17 nM.

**Q.** Which EC50 does the source give for `C/C=C/C(=O)Nc1cccc(CN2CCC(C(=O)NC(C)(C)C)CC2)c1` [Example 1.335] here?
**A.** Its EC50 is 21 nM.

**Q.** How did the EC50 turn out when `C=CC(=O)Nc1cccc(CN2CCC(C(=O)NC(C)(C)C)CC2)c1` [Example 1.336] was run?
**A.** The EC50 was 83 nM.

**Q.** For `CC(C)(C)NC(=O)C1CCN(Cc2cccc(NC(=O)/C=C/c3ccccc3)c2)CC1` [Example 1.337], which EC50 is on record?
**A.** The EC50 was 8 nM.

**Q.** `CCC(C)(C)NC(=O)C1CCN(Cc2cccc(NC(=O)c3ccc(Cl)cn3)c2)CC1` [Example 1.338] was tested. Which EC50 did it give?
**A.** Its EC50 is 0.8 nM.

**Q.** Which EC50 does the source give for `CC(C)(C)NC(=O)C1CCN(Cc2cccc(NC(=O)c3ccc(Cl)cn3)c2)CC1` [Example 1.339] here?
**A.** Its EC50 is 0.6 nM.

**Q.** How did the EC50 turn out when `CC(C)(C)NC(=O)C1CCN(Cc2cccc(NC(=O)c3ncc(Cl)cc3F)c2)CC1` [Example 1.340] was run?
**A.** The EC50 was 0.7 nM.

**Q.** Which EC50 does the source give for `CCC(C)(C)NC(=O)C1CCN(Cc2cccc(NC(=O)c3ccc(C(F)(F)F)cn3)c2)CC1` [Example 1.341] here?
**A.** Its EC50 is 1 nM.

**Q.** With `CN(C)C/C=C/C(=O)Nc1cccc(CN2CCC(C(=O)NC(C)(C)C)CC2)c1` [Example 1.342] as the compound, how does the EC50 read?
**A.** Its EC50 is 216 nM.

**Q.** How did the EC50 turn out when `CCC(C)(C)NC(=O)C1CCN(Cc2cccc(NC(=O)c3ncc(Cl)cc3F)c2)CC1` [Example 1.343] was run?
**A.** The EC50 was 1 nM.

**Q.** Which EC50 does the source give for `CC(C)(C)NC(=O)C1CCN(Cc2cccc(NC(=O)c3cccc(Br)n3)c2)CC1` [Example 1.344] here?
**A.** The EC50 was 0.9 nM.

**Q.** With `CC(C)(C)NC(=O)C1CCN(Cc2cccc(NC(=O)c3cccc(C(F)(F)F)[n+]3[O-])c2)CC1` [Example 1.345] as the compound, how does the EC50 read?
**A.** Its EC50 is 1 nM.

**Q.** `CCC(C)(C)NC(=O)C1CCN(Cc2cccc(NC(=O)c3cccc(C(F)(F)F)[n+]3[O-])c2)CC1` [Example 1.346] was tested. Which EC50 did it give?
**A.** Its EC50 is 1 nM.

**Q.** Which EC50 does the source give for `CCC(C)(C)NC(=O)C1CCN(Cc2cccc(NC(=O)c3ccc(C(F)(F)F)c[n+]3[O-])c2)CC1` [Example 1.347] here?
**A.** The EC50 was 16 nM.

**Q.** Which EC50 does the source give for `CC(C)(C)NC(=O)C1CCN(Cc2cccc(NC(=O)c3ccc(C(F)(F)F)c[n+]3[O-])c2)CC1` [Example 1.348] here?
**A.** Its EC50 is 8 nM.

**Q.** Which EC50 does the source give for `COC(=O)c1cncc(C(=O)Nc2cccc(CN3CCC(C(=O)NC(C)(C)C)CC3)c2)c1` [Example 1.349] here?
**A.** The EC50 was 34 nM.

**Q.** With `COC(=O)c1cncc(C(=O)Nc2cccc(CN3CCC(C(=O)NC4CCCCC4)CC3)c2)c1` [Example 1.350] as the compound, how does the EC50 read?
**A.** The EC50 was 29 nM.

**Q.** How did the EC50 turn out when `CC(C)(C)NC(=O)C1CCN(Cc2cccc(NC(=O)c3ccc(S(C)(=O)=O)cc3)c2)CC1` [Example 1.351] was run?
**A.** Its EC50 is 176 nM.

**Q.** How did the EC50 turn out when `CC(C)(C)NC(=O)C1CCN(Cc2cccc(NC(=O)c3cccc(S(C)(=O)=O)c3)c2)CC1` [Example 1.352] was run?
**A.** The EC50 was 71 nM.

**Q.** Which EC50 does the source give for `CC(C)(C)NC(=O)C1CCN(Cc2cccc(NC(=O)c3ccc4ncsc4c3)c2)CC1` [Example 1.353] here?
**A.** Its EC50 is 3 nM.

**Q.** With `Cc1nc2cc(C(=O)Nc3cccc(CN4CCC(C(=O)NC(C)(C)C)CC4)c3)ccc2s1` [Example 1.354] as the compound, how does the EC50 read?
**A.** Its EC50 is 108 nM.

**Q.** `CC(C)(C)NC(=O)C1CCN(Cc2cccc(NC(=O)c3ccc4snnc4c3)c2)CC1` [Example 1.355] was tested. Which EC50 did it give?
**A.** Its EC50 is 3 nM.

**Q.** `C[C@H]1C[C@@H](C(=O)NC2CCCCC2)CCN1Cc1cccc(NC(=O)c2cccc(C(F)(F)F)n2)c1` [Example 2.105, 6-Trifluoromethyl-pyridine-2-carboxylic acid [3-((2S,4S)-4-cyclohexylcarbamoyl-2-methyl-piperidin-1-ylmethyl)-phenyl]-amide or 6-trifluoromethyl-pyridine-2-carboxylic acid [3-((2R,4R)-4-cyclohexylcarbamoyl-2-methyl-piperidin-1-ylmethyl)-phenyl]-amide] was tested. Which EC50 did it give?
**A.** The EC50 was 3 nM.

**Q.** For `C[C@@H]1C[C@H](C(=O)NC2CCCCC2)CCN1Cc1cccc(NC(=O)c2cccc(C(F)(F)F)n2)c1` [Example 2.106, 6-Trifluoromethyl-pyridine-2-carboxylic acid [3-((2R,4R)-4-cyclohexylcarbamoyl-2-methyl-piperidin-1-ylmethyl)-phenyl]-amide or 6-trifluoromethyl-pyridine-2-carboxylic acid [3-((2S,4S)-4-cyclohexylcarbamoyl-2-methyl-piperidin-1-ylmethyl)-phenyl]-amide], which EC50 is on record?
**A.** The EC50 was 49 nM.

**Q.** With `COc1cncc(C(=O)Nc2cccc(CN3CCC(C(=O)NC(C)(C)C)CC3)c2)c1` [Example 4.014, N-[3-(4-tert-Butylcarbamoyl-piperidin-1-ylmethyl)-phenyl]-5-methoxy-nicotinmide] as the compound, how does the EC50 read?
**A.** The EC50 was 8 nM.

**Q.** How did the EC50 turn out when `CC(C)(C)NC(=O)C1CCN(Cc2cccc(NC(=O)c3ccc(F)cn3)c2)CC1` [Example 4.020, 5-Fluoro-pyridine-2-carboxylic acid [3-(4-tert-butylcarbamoyl-piperidin-1-ylmethyl)-phenyl]-amide] was run?
**A.** Its EC50 is 0.6 nM.

**Q.** For `CCC(C)(C)NC(=O)C1CCN(Cc2cccc(NC(=O)c3ccc(F)c[n+]3[O-])c2)CC1` [Example 4.021, 5-Fluoro-1-oxy-pyridine-2-carboxylic acid {3-[4-(1,1-dimethyl-propylcarbamoyl)-piperidin-1-ylmethyl]-phenyl}amide], which EC50 is on record?
**A.** The EC50 was 2 nM.

**Q.** `Cc1cc(C(=O)Nc2cccc(CN3CCC(C(=O)NC(C)(C)C)CC3)c2)c[n+]([O-])c1` [Example 4.022, N-[3-(4-tert-Butylcarbamoyl-piperidin-1-ylmethyl)-phenyl]-5-methyl-1-oxy-nicotinamide] was tested. Which EC50 did it give?
**A.** Its EC50 is 234 nM.

**Q.** `CCC(C)(C)NC(=O)C1CCN(Cc2cccc(NC(=O)c3cc(C)c[n+]([O-])c3)c2)CC1` [Example 4.023, N-{3-[4-(1,1-Dimethyl-propylcarbamoyl)-piperidin-1-ylmethyl]-phenyl}-5-methyl-1-oxy-nicotinamide] was tested. Which EC50 did it give?
**A.** Its EC50 is 173 nM.

**Q.** For `CC(C)(C)NC(=O)C1CCN(Cc2cccc(NC(=O)c3ccc(Cl)c[n+]3[O-])c2)CC1` [Example 4.024, 5-Chloro-1-oxy-pyridine-2-carboxylic acid [3-(4-tert-butylcarbamoyl-piperidin-1-ylmethyl)-phenyl]-amide], which EC50 is on record?
**A.** The EC50 was 3 nM.

**Q.** How did the EC50 turn out when `CCC(C)(C)NC(=O)C1CCN(Cc2cccc(NC(=O)c3ccc(Cl)c[n+]3[O-])c2)CC1` [Example 4.025, 5-Chloro-1-oxy-pyridine-2-carboxylic acid {3-[4-(1,1-dimethyl-propylcarbamoyl)-piperidin-1-ylmethyl]-phenyl}amide] was run?
**A.** The EC50 was 2 nM.

**Q.** Which EC50 does the source give for `Cc1cncc(C(=O)Nc2cccc(CN3CCC(C(=O)NC4CCCCC4)CC3)c2)c1` [Example 6.001, N-(3-((4-(cyclohexylcarbamoyl)piperidine-1-yl)d2methyl)phenyl)-5-methylnicotinamide] here?
**A.** Its EC50 is 5 nM.

**Q.** `Cc1cncc(C(=O)Nc2cccc(CN3CCC(C(=O)NC4CCCC4)CC3)c2)c1` [Example 6.002, N-(3-((4-(cyclopentylcarbamoyl)piperidin-1-yl)d2methyl)phenyl)-5-methylnicotinamide] was tested. Which EC50 did it give?
**A.** The EC50 was 4 nM.

**Q.** How did the EC50 turn out when `Cc1cc(C(=O)Nc2cccc(CN3CCC(C(=O)NC(C)(C)C)CC3)c2)cnn1` [Example 7.001, 6-Methyl-pyridazine-4-carboxylic acid [3-(4-tert-butylcarbamoyl-piperidin-1-ylmethyl)-phenyl]-amide] was run?
**A.** The EC50 was 62 nM.

**Q.** How did the EC50 turn out when `CC(C)(C)NC(=O)C1CCN(Cc2cccc(NC(=O)c3ccc(N)cn3)c2)CC1` [Example 8.001, 5-Amino-pyridine-2-carboxylic acid [3-(4-tert-butylcarbamoyl-piperidin-1-ylmethyl)-phenyl]-amide] was run?
**A.** The EC50 was 4 nM.

**Q.** With “rac-6-Trifluoromethyl-pyridine-2-carboxylic acid [3-((2S*,4S*)-4-cyclohexylcarbamoyl-2-methyl-piperidin-1-ylmethyl)-phenyl]-amide [Example 2.101]” as the compound, how does the EC50 read?
**A.** Its EC50 is 5 nM.
